Test systems include CAKI-1 renal; EKVX NSCLC; HCT-15 colon; HOP-92 NSCLC; HS 578T breast; HT29 colon; M14 melanoma; MALME-3M melanoma; NCI-H226 lung; NCI-H23 lung; NCI/ADR-RES ovarian; OVCAR-3 ovarian; OVCAR-4 ovarian; SF-268 CNS; SF-539 CNS; SK-MEL-28 melanoma; SK-OV-3 ovarian; SW-620 colon; HCC-2998 colon; UACC-62 melanoma.
Common to all, as to assay: DTP human tumour cell line panel, 48 h

SMILES strings stand for the structures.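 Following 48 hours of exposure in 96-well plates, responses at five concentrations were used to interpolate endpoints linearly. Definition used: TGI = concentration required for complete inhibition of growth.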

Take `Cc1cc(C)c(-n2c(C)c(C)c(C#N)c2N)c(C)c1`: the concentration for total growth inhibition (TGI) in the assay with CAKI-1 renal is > 100 µM; in the assay on EKVX NSCLC, 87.6 µM; with HCT-15 colon, > 100 µM; in the assay on HOP-92 NSCLC it was 74.4 µM; in the assay on HS 578T breast, > 100 µM; in the assay with HT29 colon, > 100 µM. Moreover, the TGI in the assay on M14 melanoma was > 100 µM; with MALME-3M melanoma it was 87.8 µM; in the assay on NCI-H226 lung, > 100 µM; in the assay with NCI-H23 lung, > 100 µM; with NCI/ADR-RES ovarian it was > 100 µM; with OVCAR-3 ovarian, > 100 µM. Further, the total growth inhibition concentration (TGI) was > 100 µM in the assay with OVCAR-4 ovarian; > 100 µM in the assay on SF-268 CNS; 69.8 µM with SF-539 CNS; > 100 µM with SK-MEL-28 melanoma; > 100 µM in the assay on SK-OV-3 ovarian; > 100 µM in the assay with SW-620 colon.

With `Cc1ccc2c(=O)cc(-c3cc4ccccc4s3)[nH]c2n1`, the TGI in the assay with CAKI-1 renal, in the assay on EKVX NSCLC, with HCC-2998 colon, in the assay with HCT-15 colon, in the assay on HS 578T breast and in the assay on HT29 colon was > 100 µM each time. For the same compound, the TGI with M14 melanoma was > 100 µM; with MALME-3M melanoma, > 100 µM; in the assay with NCI-H226 lung, 98.6 µM; with NCI-H23 lung, > 100 µM; in the assay with NCI/ADR-RES ovarian it was > 100 µM; with OVCAR-3 ovarian, > 100 µM. The TGI with OVCAR-4 ovarian, with SF-268 CNS, in the assay with SK-MEL-28 melanoma, in the assay on SK-OV-3 ovarian, in the assay on SW-620 colon and in the assay on UACC-62 melanoma was > 100 µM throughout.

Regarding `COc1c(C(=O)/C(=N/Nc2cccc(Cl)c2)C(C)=O)c(O)c(OC)c2occc12`, the TGI in the assay with CAKI-1 renal, in the assay with EKVX NSCLC, in the assay on HCC-2998 colon, in the assay on HCT-15 colon, in the assay on HOP-92 NSCLC and in the assay on HS 578T breast was > 100 µM in each case. For the same compound, the TGI in the assay on HT29 colon, with M14 melanoma, in the assay with MALME-3M melanoma, with NCI-H226 lung, in the assay on NCI-H23 lung and in the assay with NCI/ADR-RES ovarian was > 100 µM in each case. For the same compound, the TGI with OVCAR-3 ovarian, with SF-268 CNS, in the assay on SF-539 CNS, with SK-MEL-28 melanoma, in the assay with SK-OV-3 ovarian and in the assay with SW-620 colon was > 100 µM throughout. For the same compound, in the assay on UACC-62 melanoma, the TGI is > 100 µM.

As for `Cn1cc(S(=O)(=O)NC(=O)Nc2ccc(Cl)cc2)c(=O)c2ccc(Cl)cc21`, the TGI with CAKI-1 renal, with EKVX NSCLC, in the assay on HCC-2998 colon, in the assay on HCT-15 colon, with HS 578T breast and in the assay with HT29 colon was > 100 µM in each case. The TGI in the assay on M14 melanoma, with MALME-3M melanoma, with NCI-H226 lung, in the assay with NCI-H23 lung, in the assay on NCI/ADR-RES ovarian and in the assay on OVCAR-3 ovarian was > 100 µM in each case. Further, the TGI in the assay on OVCAR-4 ovarian, with SF-268 CNS, in the assay with SF-539 CNS, with SK-MEL-28 melanoma, in the assay on SK-OV-3 ovarian and in the assay with SW-620 colon was > 100 µM in each case. In addition, the TGI with UACC-62 melanoma is > 100 µM.

Take `CC(SC(=S)N(C)C)C(=O)Nc1nnc(-c2ccc(Cl)cc2)o1` (centres undefined): the total growth inhibition concentration (TGI) in the assay with HCC-2998 colon was > 100 µM; in the assay with HCT-15 colon it was > 100 µM; in the assay on HOP-92 NSCLC it was > 100 µM; in the assay on HS 578T breast, > 100 µM; in the assay with HT29 colon, 51.9 µM; with M14 melanoma, > 100 µM. For the same compound, the concentration for total growth inhibition (TGI) in the assay on MALME-3M melanoma, with NCI-H226 lung, in the assay on NCI-H23 lung, in the assay on NCI/ADR-RES ovarian, with OVCAR-3 ovarian and in the assay with OVCAR-4 ovarian was > 100 µM each time. Also, the concentration for total growth inhibition (TGI) in the assay with SF-268 CNS, in the assay with SF-539 CNS, in the assay on SK-MEL-28 melanoma, in the assay on SK-OV-3 ovarian, in the assay with SW-620 colon and in the assay with UACC-62 melanoma was > 100 µM each time.

For `CC1(C)[C@H]2CC[C@](C)(C2)[C@]1(S)Cc1ccccn1`, the TGI in the assay on CAKI-1 renal was > 100 µM; with EKVX NSCLC, > 100 µM; in the assay with HCC-2998 colon, 41.5 µM; in the assay on HCT-15 colon, > 100 µM; in the assay with HOP-92 NSCLC, > 100 µM; with HS 578T breast, > 100 µM. Moreover, the concentration for total growth inhibition (TGI) in the assay with HT29 colon is > 100 µM; with M14 melanoma, > 100 µM; in the assay with MALME-3M melanoma it was > 100 µM; in the assay on NCI-H23 lung it was > 100 µM; in the assay on NCI/ADR-RES ovarian, > 100 µM; in the assay on OVCAR-3 ovarian it was 73 µM. The TGI in the assay on SF-268 CNS was > 100 µM; in the assay on SF-539 CNS, > 100 µM; in the assay with SK-MEL-28 melanoma, > 100 µM; in the assay on SK-OV-3 ovarian, 93.6 µM; in the assay with SW-620 colon it was > 100 µM; with UACC-62 melanoma, > 100 µM.

As for `COc1cc2c(NCCN(C)C)nc3c4cc5c(cc4ccc3c2cc1OC)OCO5`, the TGI in the assay with CAKI-1 renal was 5.88 µM; with EKVX NSCLC, 8.25 µM; in the assay on HCC-2998 colon, 8.93 µM; in the assay with HCT-15 colon, 6.56 µM; in the assay with HOP-92 NSCLC, 8.77 µM; in the assay with HS 578T breast, 12.4 µM. For the same compound, the TGI in the assay on HT29 colon stood at 6.56 µM; in the assay on M14 melanoma, 7.4 µM; in the assay on MALME-3M melanoma, 7.78 µM; in the assay with NCI-H226 lung it was 8.18 µM; in the assay with NCI-H23 lung it was 6.32 µM; in the assay on NCI/ADR-RES ovarian, 8.31 µM. Besides, the TGI is 7.91 µM in the assay with OVCAR-4 ovarian; 8.98 µM in the assay with SF-268 CNS; 7.73 µM in the assay on SF-539 CNS; 9.16 µM in the assay on SK-MEL-28 melanoma; 8.65 µM in the assay with SK-OV-3 ovarian; 7.22 µM in the assay on SW-620 colon. The compound further came in with a TGI in the assay with UACC-62 melanoma of 8.41 µM.

Source of the values: PubChem BioAssay (NCI).
